As a reminder, the IC90 is the concentration at which the effect reaches the 90% level. As a reminder, the IC50 is the midpoint of a concentration-inhibition curve. Usually melting point stands for the temperature of the solid-liquid transition.

Data set [1] relates to HIV strain HTLV-IIIB (WT). Nature of the data set: p24 production in PBMNC infected with HTLV-IIIB. It counts as cell-based, HIV-1. On the procedure:
(§1) Percent inhibition of viral replication was calculated by comparing the p24 values from the test substance treated infected cells with p24 values from untreated infected cells (i.e., virus controls). In parallel, the effects of various treatments on cell viability were also examined, as described in Enrice et. al., supra. In brief, non-infected PBNWC were treated with each compound for 7 days under identical experimental conditions. A Microculture Tetrazolium Assay (NTFA), using 2,3-bis(2-methoxy-4 nitro-5-sulfophenyl)-5-[(phenylamino)-carbonyl]-2H-tetrazolium hydroxide (XTT), was performed to quantitate cellular proliferation.

Data set [2] concerns HIV strain RT-MDR (74V, 41L, 106A, 215Y). Nature of the data set: microbe, parasite or virus in culture. It counts as cell-based, HIV-1. To be noted: for times less potent than DDE240: multiple drug resistant mutant strain. On the procedure:
as §1

For data set [3], the system named is HIV strain A17 (Y181C). In words: p24 production in PBMNC infected with A17. Format: cell-based, HIV-1. To be noted: for IC50: Human immunodeficiency virus 1, read-out: IC50 p24. On the procedure:
(§2) Normal human peripheral blood mononuclear cells (PBMNC) from HIV-negative donors were cultured 72 hours in RPMI 1640 supplemented with 20% (v/v) heat-inactivated fetal bovine serum (FBS), 3% interleukin-2, 2 mM L-glutairtine, 25 mM HEPES, 2 μL, NAHCO, […] gentamicin, and 4 μg/mL phytohemagglutinin prior to exposure to HIV-I at a multiplicity of infection (MOI) of 0.1 during a one-hour adsorption period at 37'C in a humidified 5% C02 atmosphere. Subsequently, cells were cultured in 96-well microliter plates (100 μl/well; 2×10^6 cells/mL, triplicate wells) in the presence of various inhibitor concentrations and aliquots of culture supernatants were removed from the wells on the 7th day after infection for p24 antigen p24 enzyme immunoassays (EIA), as previously described. (see Erice et. al., 1993, Antiimicrob. Ag. Chemotherapy 37:835–838) The applied p24 EIA was the unmodified kinetic assay commercially available from Coulter Corporation/Immunotech, Inc. (Westbrooke, Me.), which utilizes a murine monoclonal antibody to HIV core protein coated onto microwell strips to which the antigen present in the test culture supernatant samples binds. Percent inhibition of viral replication was calculated by comparing the p24 values from the test substance treated infected cells with p24 values from untreated infected cells (i.e., virus controls). In parallel, the effects of various treatments on cell viability were also examined, as described in Enrice et. al., supra. In brief, non-infected PBNWC were treated with each compound for 7 days under identical experimental conditions. A Microculture Tetrazolium Assay (NTFA), using 2,3-bis(2-methoxy-4 nitro-5-sulfophenyl)-5-[(phenylamino)-carbonyl]-2H-tetrazolium hydroxide (XTT), was performed to quantitate cellular proliferation.

Data set [4] deals with T1, purified recombinant HIV RT (Human immunodeficiency virus type 1 group M subtype B, UniProt P04585).
T1 construct: purified recombinant HIV RT
In words: Purified RT assay, cell-free Quan-T-RT system (scintillation proximity). It counts as biochemical. To be noted: for IC50: recombinant HIV RT, cell-free. On the procedure:
The primer DNA is a 16-mer oligo(T) which has been annealed to a poly(A) template. The primer/template is bound to a strepavidin-coated SPA bead.
3H-TTP is incorporated into the primer by reverse transcription. […] The compound being tested was added to the reaction mixture at 0.001 μM–100 μM concentrations. […] The reaction was stopped by addition of 0.2 ml of 120 mM EDTA. The samples were counted in an open window using a Beckman LS 7600 instrument and IC, values were calculated by comparing the measurements to untreated samples.
A general note: Scintillation proximity formats need no separation of bound from free tracer.

Data set [5] deals with HIV strain A17 variant (Y181C, K103N). Nature of the data set: p24 production in PBMNC infected with A17 variant. It counts as cell-based, HIV-1. To be noted: Human immunodeficiency virus 1, read-out: IC50 p24. On the procedure: as §2
The mark [6] stands for this setting: Human immunodeficiency virus 1, IIIB, HIV replication assay.
[7] abbreviates: Human immunodeficiency virus 1, read-out: IC50 p24, RT-MDR (74V, 41L, 106A, 215Y), PBMNC.
[8] abbreviates: Human immunodeficiency virus 1, HTLV IIIB WT, PBMNC, read-out: IC50 p24.
[9] abbreviates: Human immunodeficiency virus 1, HTLV IIIB, PBMNC, read-out: IC50[p24].

Like-named read-outs stand apart in the source and are kept apart here. Some results are limits rather than exact numbers.

Compound `Cc1cn([C@H]2C[C@H](N=[N+]=[N-])[C@@H](CO)O2)c(=O)[nH]c1=O` [AZT, reference compound] yielded an IC90 in data set [1] (setting [6]) of 100 nM. Besides, the IC50 in data set [2] (setting [7]) was found to be 150 nM; in data set [3], 6 nM.
As for `COc1ccc(OC)c(CCNC(=S)Nc2ccc(Br)cn2)c1` [DDE236, N-[2-(2,5-dimethoxyphenylethyl)]-N′-[2-(5-bromopyridyl)]-thiourea], the melting point was 133 to 138 °C. The “times more potent than trovirdine” value in data set [4] (purified recombinant HIV-RT) came to 8 times. Also, in data set [1] (HIV replication assay), the “IC90 fold better than AZT” value came to 10 fold. The same compound showed an IC90 in data set [1] (setting [6]) of 9 nM. The IC50 in data set [1] (setting [8]) is under 1 nM. Further, the “selectivity index (IC50[MTA]/IC50[p24])” value in data set [1] (calculated) is on record as > 10^5. The IC50 in data set [2] (setting [7]) was 5 nM. Further, the IC50 in data set [3] was found to be 100 nM. Further, the IC50 in data set [5] is 11000 nM.
For `Fc1ccccc1CCNC(=S)Nc1ccc(Br)cn1` [DDE240, N-[2-(2-fluorophenethyl)]-N′-[2-(5-bromopyridyl)]-thiourea], the melting point lay in the range of 156 to 157 °C. The IC50 in data set [1] (setting [8]) is under 1 nM. In addition, in data set [1] (setting [9]), the IC50 was under 1 nM. The IC50 in data set [2] (setting [7]) is 6 nM. For the same compound, in data set [2] (MDR HIV), the “fold better activity than delavirdine” value was found to be 100 fold and the “fold better activity than nevirapine” value is recorded as 800 fold. For the same compound, the IC50 in data set [2] (read-out: IC50 p24, RT-MDR (74V, 41L, 106A, 215Y), PBMNC) stood at 5 nM. Besides, the IC50 in data set [3] was 200 nM. Moreover, in data set [3] (Y181C mutant), the “times better activity than delavirdine” value is on record as 200 times and the “times more potent than nevirapine” value is “more than 500 times”. The IC50 in data set [5] came to 41000 nM.
As for `Fc1cccc(CCNC(=S)Nc2ccc(Br)cn2)c1` [DDE241], the IC50 in data set [4] (read-out: RRT (IC50[rRT])) is 760 nM; in data set [1] (setting [8]), under 1 nM; in data set [2] (setting [7]) it was 20 nM.
As for `Fc1ccc(CCNC(=S)Nc2ccc(Br)cn2)cc1` [DDE242], the values for the IC50 in data set [4] (RRT (IC50[rRT])), in data set [4] (read-out: RRT (IC50[rRT])) and in data set [1] (setting [9]) were 6000 nM, 6060 nM and 10 nM, respectively.
For the compound `S=C(NCCc1ccccc1Cl)Nc1ccc(Br)cn1` [DDE253], the 50% inhibitory concentration (IC50) was under 1 nM in data set [1] (setting [8]) and 4 nM in data set [2] (setting [7]).
`CC(C)Nc1cccnc1N1CCN(C(=O)c2cc3cc(NS(C)(=O)=O)ccc3[nH]2)CC1` [Delavirdine, reference compound]: the IC50 in data set [1] (setting [8]) was 9 nM; in data set [2] (setting [7]), 400 nM; in data set [3] it was 50000 nM; in data set [5], over 100000 nM.
On to `CCOCn1c(Cc2ccccc2)c(C(C)C)c(=O)[nH]c1=O` [MKC-442, reference compound], for which the IC50 was 800 nM in data set [4] (read-out: RRT (IC50[rRT])) and 300 nM in data set [2] (setting [7]).
As for `Cc1ccnc2c1NC(=O)c1cccnc1N2C1CC1` [Nevirapine, reference compound], the IC50 was 34 nM in data set [1] (setting [8]), 5000 nM in data set [2] (setting [7]), over 100000 nM in data set [3] and over 100000 nM in data set [5].
`S=C(NCCc1ccccn1)Nc1ccc(Br)cn1` [Trovirdine, reference compound]: the IC50 worked out at 7 nM in data set [1] (Human immunodeficiency virus 1, IIIB, read-out: IC50 p24) and 20 nM in data set [2] (Human immunodeficiency virus 1, read-out: IC50 p24). Besides, the “times less potent than DDE240” value is reported as 10 times in data set [1] (zidovudine-sensitive strain HTLV IIIB), “up to 7 times” in data set [2] and “three times less potent” in data set [2] (listed as Trouviridine).

Source of the values: patent US7186736B1, “NNI for treatment of multi-drug resistant HIV” (Parker Hughes Institute, priority 1999, dated 2007).
